Test results taken from patent US20080090770A1, “Modulation of Muc1 Mediated Signal Transduction” (priority 2003, published 2008).

How the values were obtained:
[1] = biological target: T1, KIAA0751 (RIM2) PDZ domain 1 (Homo sapiens, UniProt Q9UQ26); assay: Modified ELISA: titration of biotinylated peptide against GST-PDZ domain fusion protein; format: binding
T1 construct: RIM2, PDZ domain 1: GI#: 12734165; made in house; host or cells: E. coli
T1 sequence (Q9UQ26 668-754 limits assumed): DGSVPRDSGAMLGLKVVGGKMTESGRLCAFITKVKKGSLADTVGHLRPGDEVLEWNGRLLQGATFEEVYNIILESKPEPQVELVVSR
Experimental: Coat plate with 100 μl of 5 μg/ml anti-GST, O/N at 4° C.;
Dump contents of plate & out tap dry on paper towels;
Block with 200 μl Assay Buffer for 2 hrs at room temperature;
Prepare proteins in Assay Buffer;
Add proteins at 50 μl per well, incubate 1 to 2 hrs at 4° C.;
Prepare peptides in Assay Buffer;
Add peptides at 50 μl per well on ice (write time on plate);
Incubate on ice after last peptide has been added for exactly 10 minutes;
Place at room temp for exactly 20 minutes;
Prepare HRP-Streptavidin within 10 minutes of time of use;
Promptly wash 3× with cold PBS;
Add 100 μl per well of HRP-Streptavidin (write time on plate);
Incubate at 4° C. for exactly 20 minutes;
Turn on plate reader and prepare files;
Promptly wash 5× with PBS at room temperature;
Add 100 μl/well TMB substrate (write time on plate);
Incubate in dark at room temp for a maximum of 30 minutes;
Read plate at 25 minutes (650 nm);
Stop reaction with 100 μl of 0.18M H2SO4, 30 min. after adding TMB;
Take last reading at 450 nm soon after stopping reaction;
Titrations to determine relative EC50 values: Peptide corresponding to MUC1 was then titrated against a constant amount of the PDZ domain-containing recombinant proteins identified in the first part of this example.
Using the modified ELISA described supra in Example 6, the effect of two variant carboxy-terminal MUC1 peptides were examined. Two MUC1 isoforms with an A/T substitutions at the fifth amino acid residue from the carboxy-terminal end have been reported in the literature, e.g., carboxy-terminal AAASANL disclosed in GenBank P15941 [gi:547937] and carboxy-terminal AATSANL disclosed in GenBank A35175 [gi:11385307]. Peptides were prepared consisting of the TAT sequence SEQ ID NO: 102 and the terminal nine amino acid residues of the relevant MUC1 sequence, i.e., […]
Using the modified ELISA described supra in Example 7, the binding to the RIM2 PDZ domain of the biotinylated peptide sequences listed in Table 8 were examined. […] Relative EC50 values were calculated from a curve fit of the data for each interaction.

[2] = biological target: T2, biotinylated TAT-MUC1 binding to ZO1 d2 (Homo sapiens, UniProt Q07157); assay: Modified ELISA: competition with binding of biotinylated TAT-MUC1 peptide (SEQ ID NO: 134) to PDZ domain
T2 construct: made in house; host or cells: E. coli
T2 sequence (Q07157 186-264 limits assumed): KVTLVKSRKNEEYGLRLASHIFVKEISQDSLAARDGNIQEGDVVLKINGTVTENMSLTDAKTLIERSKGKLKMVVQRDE

[3] = tested on: PDZ domains; assay: Self-competition experiments in modified ELISA; format: binding, human; conditions: of the three peptides tested
[4] = biological target: T3, biotinylated TAT-MUC1 binding to RIM2 (Homo sapiens, UniProt Q9UQ26); assay: Modified ELISA: competition with binding of biotinylated TAT-MUC1 peptide (SEQ ID NO: 134) to PDZ domain; conditions: FIG. 10, among three peptides
T3 construct: RIM2, PDZ domain 1: GI#: 12734165; made in house; host or cells: E. coli
T3 sequence (Q9UQ26 668-754 limits assumed): T1 sequence (Q9UQ26 668-754 limits assumed)

[5] = tested on: HCT116/MUC1 cells; assay: Apoptosis assay (sub-G1 DNA content) after siRNA transfection and CDDP treatment; format: cell-based, human; conditions: CDDP 100 μM
Experimental: (§1) Cell culture and transfection: Human colon cancer HCT116 cells and human non-small lung cancer A549 were grown in Dulbecco's modified Eagle's medium (DMEM) and RPMI1640 medium, respectively, in a humidified 5% CO2 atmosphere at 37° C. Media were supplemented with 10% fetal bovine serum (FBS), 100 units/ml of penicillin and 100 μg/ml of streptomycin. HCT116 cells were transfected with pIRES-puro2 or pIRES-puro2-MUC1 as described (Li et al., 2001(a)) and stable transfectants were selected in the presence of 0.4 μg/ml puromycin (Caliochem-Novabiochem).
(§2) A nonspecific scrambled control siRNA (SCRsiRNA) was also synthesized (targeted sequence: 5′-[…]-3′) (Dharmacon, Inc.). Cells were plated, grown in antibiotic-free medium overnight, and then transiently transfected with siRNAs (0.2-20 nM) using Oligofectamine reagent (Invitrogen Life Technology, Inc.) and Opti-MEM 1 reduced serum medium (Invitrogen Life Technology, Inc.) according to the manufacturer's instructions.
(§3) Apoptosis assay: At 48 hr after siRNA transfection, cells were treated with 0, 10 or 100 μM cisplatin (CDDP, Sigma) for 24 hr to induce apoptosis. Apoptotic cells were quantified by analysis of sub-G1 DNA content. Cells were harvested, washed, with PBS, fixed with 75% ethanol, and incubated in PBS containing 200 μg/ml RNase A (Qiagen) for 15 min at 37° C. […] DNA content was analyzed by flow cytometry (EPICS XL-MCL, Coulter Corp.).

[6] = tested on: HCT116/vector cells; assay: as above; format: cell-based, human; conditions: CDDP 100 μM
Experimental: as §1, §2, §3

[7] = tested on: HCT116 cells transfected with MUC1ΔSANL; assay: Visualization of viable cells after cisplatin in transfected HCT116 cells; format: cell-based, human; conditions: 100 μM cisplatin, 24 and 48 hr
Experimental: Human HCT116 colon carcinoma cells (ATCC, Manassas, Va.) were cultured in Dulbecco's modified Eagle's medium/F12 with 10% heat-inactivated fetal bovine serum, 100 units/ml penicillin, […] streptomycin and 2 mM L-glutamine. HCT116 cells were transfected with pIRES-puro2, pIRESpuro2-MUC1 or pIRES-puro2-MUC1ΔSANL (MUC1 with the four carboxyl terminal amino acids […] deleted) as described (Li et al., 2001). Stable transfectants were selected in the presence of 0.4 mg/ml puromycin (Calbiochem-Novabiochem, San Diego, Calif.).
Cells were incubated with 100 μM cisplatin (CDDP; Sigma), for 24 and 48 hr.

Molecule	EC50 for binding to RIM2, compared with SEQ ID NO: 136 [1]	Selectivity of binding, RIM2 versus ZO 1 d2 [1]	Tightness of binding to RIM2 among the three peptides ([1]; comparison of SEQ ID NO: 136, 137, 138)	Competition for binding of biotinylated SEQ ID NO: 134 (TAT-MUC1) [2]	Behaviour in self-competition experiments [3]	Competitive inhibition of biotinylated SEQ ID NO: 134 (TAT-MUC1) binding [4]	Sensitivity of cells to apoptosis induced by CDDP [5]	Sensitivity of cells to apoptosis induced by CDDP [6]	Sensitivity to CDDP-induced cell death relative to cells transfected with full length MUC1 [7]
YGRKKRRQRRRQDEEEGIWA [SEQ ID NO: 137]	lower EC50	binds RIM2 more strongly than ZO 1 d2	binds most tightly	only a relatively weak competitor	acts the most like a traditional competitive inhibitor	–	–	–	–
YGRKKRRQRRRARGDRKRIV [SEQ ID NO: 136]	–	–	–	can also compete for binding	–	best competitive inhibitor	–	–	–
[NH2][Pt]([NH2])([Cl])[Cl] [CDDP, cisplatin]	–	–	–	–	–	–	relatively resistant to apoptosis	sensitive to apoptosis	substantially increase in the sensitivity to CDDP-induced cell death
